Tests used:
[1] = tested on: human corneal endothelium cells (HCECs); assay: Annexin V-FITC / propidium iodide flow cytometry apoptosis assay; type: cell-based; conditions: 50 μM and 100 μM, 24 hours (FIG. 3)
Procedure: Annexin V staining is a common method for detecting apoptotic cells. The human corneal endothelium cells (HCECs) were assessed for apoptosis using flow cytometry staining with annexin-V conjugated with fluorescein isothiocyanate and propidium iodide (FIG. 3). HCECs were cultured in DMEM/F12 containing 50 μM and 100 μM ferulic acid. Briefly, HCECs were grown to confluence and incubated for 24 hours in 24-well plates using the same conditions as in the previous sets of experiments. After centrifugation and washing in cold PBS, HCECs for annexin V-FITC staining were resuspended in binding buffer (10 mM HEPES, 140 mM sodium chloride, 5 mM potassium chloride, 1 mM magnesium dichloride, 2.5 mM calcium dichloride, pH 7.4) at a concentration of 10^6 cells/ml. Five hundred microliters containing 5×10^5 cells was transferred to a culture tube, and […] of FITC-conjugated annexin V was added. Positive controls were provided for both apoptotic and necrotic (10% ethanol) cell death. For simultaneous scoring of the differential cellular response, aliquots of 10^4 cells each were immediately processed for fluorescence-activated cell sorting (FACS) on a FACS Calibur flow cytometer (Becton-Dickinson). Excitation parameters were set at λEx=488 nm, and fluorescence emission was detected at […]=518 nm for annexin V-FITC.

[2] = tested on: bovine corneal endothelium cells; assay: TUNEL assay of AAPH induced apoptosis; type: cell-based; conditions: ferulic acid 50 μM and 100 μM, AAPH 25 mM (FIG. 4)
Procedure: Terminal deoxynucleotidyl transferase (TdT) end-labeling (TUNEL) method (DeadEnd™ Fluorometric TUNEL System, Promega, Madison, USA) was used for apoptosis analysis according to the manufacturer's instructions (FIG. 4). Briefly, bovine cornea endothelium cells were seeded on LabTek® chamber slides at a density of 1×10^4 cells/well for 24 hours, treated with 50 μM ferulic acid for 3 hours, and then reacted with 25 mM AAPH (2,2′-azobis(2-amidinopropane dihydrochloride) for 6 hours. Slides were immersed in 4% formaldehyde for fixation, cells were permeabilized with Triton® X-100. Then equilibration buffer, nucleotide mix and rTdT enzyme were added in for apoptosis cells labeling. Finally, counterstaining the nucleus with propidium iodide, and observed by fluorescence microscopy. The green fluorescence spots in FIG. 4 represents the apoptotic cells (fluorescein-12-dUTP) with a red background (propidium iodide).

SMILES: COc1cc(/C=C/C(=O)O)ccc1O [ferulic acid]
- cytotoxicity (apoptosis, annexin-V/PI) [1]: no cytotoxic effect
- protection against AAPH induced damage (apoptosis, TUNEL) [2]: prevented and/or antagonized AAPH (25 mM) induced damage

— patent US20230031385A1, “STORAGE MEDIA FOR PRESERVATION OF CORNEAL TISSUE” (National Health Research Institutes, priority 2021, published 2023)
